“And” between values parts separate entries of the source, which are not always exact repeats. Equal values may be shown once.
What was measured:
[1] = target: T1, ABL1 (Homo sapiens, UniProt P00519); assay: Liability panel screening by DSF: ABL1; type: binding; conditions: DSF, 20 µM, n=2; for ΔTm at 20 µM: read-out: Mean ΔTM ABL1
T1 construct: made in house
In short: (§1)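 Thermal shift: in-house recombinant protein at 2 µM in 10 mM HEPES pH 7.5 with 500 mM NaCl, SYPRO Orange 1:1000, heated at 3 °C/min to 85 °C in technical duplicates. Tm is the Boltzmann inflection point, reported as ∆Tm in K.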

[2] = target: T2, AURKA (Homo sapiens, UniProt O14965); assay: Liability panel screening by DSF: AURKA; type: binding; conditions: DSF, 20 µM, n=2; for ΔTm at 20 µM: read-out: Mean ΔTM AURKA
T2 construct: made in house
T2 sequence (O14965 1-403): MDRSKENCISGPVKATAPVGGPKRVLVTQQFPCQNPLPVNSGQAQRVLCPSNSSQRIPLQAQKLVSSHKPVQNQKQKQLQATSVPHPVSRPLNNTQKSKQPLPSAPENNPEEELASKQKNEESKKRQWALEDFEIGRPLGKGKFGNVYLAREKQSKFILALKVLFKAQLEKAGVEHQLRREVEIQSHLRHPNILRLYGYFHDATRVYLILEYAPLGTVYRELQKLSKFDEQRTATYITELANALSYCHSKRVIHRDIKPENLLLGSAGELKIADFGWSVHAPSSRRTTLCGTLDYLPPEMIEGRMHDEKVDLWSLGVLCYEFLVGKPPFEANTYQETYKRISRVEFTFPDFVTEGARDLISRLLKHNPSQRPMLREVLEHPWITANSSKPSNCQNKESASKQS
In short: as §1

[3] = target: T3, CDK2 (Homo sapiens, UniProt P24941); assay: Liability panel screening by DSF: CDK2; type: binding; conditions: DSF, 20 µM, n=2; for ΔTm at 20 µM: read-out: Mean ΔTM CDK2
T3 construct: made in house
In short: as §1

[4] = target: T4, FGFR3 (Homo sapiens, UniProt P22607); assay: Liability panel screening by DSF: FGFR3; type: binding; conditions: DSF, 20 µM, n=2; for ΔTm at 20 µM: read-out: Mean ΔTM FGFR3
T4 construct: made in house
In short: as §1

[5] = target: T5, GSK3B (Homo sapiens, UniProt P49841); assay: Liability panel screening by DSF: GSK3B; type: binding; conditions: DSF, 20 µM, n=2; for ΔTm at 20 µM: read-out: Mean ΔTM GSK3B
T5 construct: made in house

[6] = target: T6, BRD4 (Homo sapiens, UniProt O60885); assay: Liability panel screening by DSF: BRD4; type: binding; conditions: DSF, 20 µM, n=2; for ΔTm at 20 µM: read-out: Mean ΔTM BRD4
T6 construct: This panel comprised ten highly ligandable kinases and bromodomains; made in house
In short: as §1

[7] = target: T7, BRPF1 (Homo sapiens, UniProt P55201); assay: Liability panel screening by DSF: BRPF1; type: binding; conditions: DSF, 20 µM, n=2; for ΔTm at 20 µM: read-out: Mean ΔTM BRPF1
T7 construct: This panel comprised ten highly ligandable kinases and bromodomains; made in house
T7 sequence (P55201 628-732 limits assumed): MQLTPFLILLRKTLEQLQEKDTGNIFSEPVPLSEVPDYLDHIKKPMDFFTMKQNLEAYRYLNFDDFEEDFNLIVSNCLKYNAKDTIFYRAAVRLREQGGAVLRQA
In short: as §1

[8] = target: T8, MAPK1 (Homo sapiens, UniProt P28482); assay: Liability panel screening by DSF: MAPK1; type: binding; conditions: DSF, 20 µM, n=2; for ΔTm at 20 µM: read-out: Mean ΔTM MAPK1
T8 construct: made in house
In short: as §1

[9] = target: T9, TRIM24 (Homo sapiens, UniProt O15164); assay: Liability panel screening by DSF: TRIM24; type: binding; conditions: DSF, 20 µM, n=2; for ΔTm at 20 µM: read-out: Mean ΔTM TRIM24
T9 construct: This panel comprised ten highly ligandable kinases and bromodomains; made in house
T9 sequence (O15164 899-1004 limits assumed): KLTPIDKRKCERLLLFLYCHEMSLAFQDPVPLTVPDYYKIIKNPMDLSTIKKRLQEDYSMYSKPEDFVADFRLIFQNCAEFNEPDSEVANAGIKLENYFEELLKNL
In short: as §1

[10] = tested on: NF-κB activity in HEK293 NF-κB reporter cells; assay: NF-kB activity assay (GFP reporter, ionomycin/PMA); type: cell-based; conditions: n=3
In short: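 Reporter readout: GFP-expressing cells normalized to confluence, imaged every 90 min across 24 h after ionomycin (100 ng/mL)/PMA (10 ng/mL) stimulation of HEK293 cells pre-treated 4 h with compound (0.1% DMSO); triplicate independent experiments.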

[11] = tested on: ATF6 activity in Hela ATF6 reporter cells; assay: Endoplasmic reticulum stress assay (ATF6 Renilla luciferase reporter, tunicamycin); type: cell-based; conditions: Homo sapiens, HeLa, 3 µM, single replicates n=1 to n=5; read-out: ER stress [rel. ATF6 activity]
In short: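 ER stress was induced by 100 ng/mL tunicamycin added 4 h after compound (0.1% DMSO) to HeLa ATF6 reporter cells. After 18 h more, Renilla luciferase signal was read and expressed relative to DMSO control, n=5 biological replicates.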

[12] = tested on: HEK293T cells; assay: Cytotoxicity: growth-rate (change in confluence over 24 h); conditions: normalized to 0.1% DMSO control, single replicates (n=1...)
[13] = tested on: HEK293T cells; assay: Cytotoxicity: apoptosis induction (caspase-3/7 DEVD fluorogenic DNA dye); conditions: for Apoptosis induction [AI]: single replicates

T8 sequence (P28482 whole entry, species assumed): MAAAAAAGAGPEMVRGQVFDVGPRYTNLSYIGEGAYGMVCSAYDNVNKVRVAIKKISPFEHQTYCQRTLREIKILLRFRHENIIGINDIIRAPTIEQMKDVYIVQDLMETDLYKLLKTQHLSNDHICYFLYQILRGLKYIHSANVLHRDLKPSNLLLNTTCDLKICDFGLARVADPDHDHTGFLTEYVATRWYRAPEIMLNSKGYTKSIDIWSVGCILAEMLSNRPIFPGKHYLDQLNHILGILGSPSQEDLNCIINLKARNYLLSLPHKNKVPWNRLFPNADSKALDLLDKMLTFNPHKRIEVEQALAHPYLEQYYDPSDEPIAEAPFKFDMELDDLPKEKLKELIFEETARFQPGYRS
T5 sequence (P49841 whole entry, species assumed): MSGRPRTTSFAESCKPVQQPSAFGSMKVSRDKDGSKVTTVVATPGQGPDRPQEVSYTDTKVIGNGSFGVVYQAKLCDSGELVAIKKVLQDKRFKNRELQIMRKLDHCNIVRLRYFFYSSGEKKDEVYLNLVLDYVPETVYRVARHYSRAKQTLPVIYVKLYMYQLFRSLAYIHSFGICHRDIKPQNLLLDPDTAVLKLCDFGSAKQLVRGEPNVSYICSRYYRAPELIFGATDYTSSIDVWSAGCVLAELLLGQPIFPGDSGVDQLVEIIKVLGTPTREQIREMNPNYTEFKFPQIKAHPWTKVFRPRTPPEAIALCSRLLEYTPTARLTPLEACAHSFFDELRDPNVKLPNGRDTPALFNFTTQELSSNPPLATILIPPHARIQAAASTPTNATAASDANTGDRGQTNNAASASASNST
T4 sequence (P22607 23-806, species assumed): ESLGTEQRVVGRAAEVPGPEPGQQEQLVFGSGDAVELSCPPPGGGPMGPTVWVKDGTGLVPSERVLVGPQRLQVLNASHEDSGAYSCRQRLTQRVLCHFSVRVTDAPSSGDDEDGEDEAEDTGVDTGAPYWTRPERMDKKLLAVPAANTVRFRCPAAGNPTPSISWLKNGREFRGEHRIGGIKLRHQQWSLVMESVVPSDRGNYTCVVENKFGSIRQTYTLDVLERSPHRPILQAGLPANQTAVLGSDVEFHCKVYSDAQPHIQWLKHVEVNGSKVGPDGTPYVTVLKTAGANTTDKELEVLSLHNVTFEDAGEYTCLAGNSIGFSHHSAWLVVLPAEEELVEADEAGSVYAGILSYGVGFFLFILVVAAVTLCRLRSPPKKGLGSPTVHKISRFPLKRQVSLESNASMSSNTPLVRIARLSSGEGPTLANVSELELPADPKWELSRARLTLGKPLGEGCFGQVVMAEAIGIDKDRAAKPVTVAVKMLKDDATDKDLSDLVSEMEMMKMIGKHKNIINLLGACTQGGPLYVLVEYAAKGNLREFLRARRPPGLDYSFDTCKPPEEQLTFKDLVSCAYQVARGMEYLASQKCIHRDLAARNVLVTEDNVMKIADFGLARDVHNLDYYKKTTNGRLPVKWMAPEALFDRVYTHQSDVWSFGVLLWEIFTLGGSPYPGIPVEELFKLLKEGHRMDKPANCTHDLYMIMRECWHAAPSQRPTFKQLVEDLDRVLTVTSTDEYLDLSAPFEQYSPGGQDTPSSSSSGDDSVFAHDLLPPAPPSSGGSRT
T1 sequence (P00519 whole entry, species assumed): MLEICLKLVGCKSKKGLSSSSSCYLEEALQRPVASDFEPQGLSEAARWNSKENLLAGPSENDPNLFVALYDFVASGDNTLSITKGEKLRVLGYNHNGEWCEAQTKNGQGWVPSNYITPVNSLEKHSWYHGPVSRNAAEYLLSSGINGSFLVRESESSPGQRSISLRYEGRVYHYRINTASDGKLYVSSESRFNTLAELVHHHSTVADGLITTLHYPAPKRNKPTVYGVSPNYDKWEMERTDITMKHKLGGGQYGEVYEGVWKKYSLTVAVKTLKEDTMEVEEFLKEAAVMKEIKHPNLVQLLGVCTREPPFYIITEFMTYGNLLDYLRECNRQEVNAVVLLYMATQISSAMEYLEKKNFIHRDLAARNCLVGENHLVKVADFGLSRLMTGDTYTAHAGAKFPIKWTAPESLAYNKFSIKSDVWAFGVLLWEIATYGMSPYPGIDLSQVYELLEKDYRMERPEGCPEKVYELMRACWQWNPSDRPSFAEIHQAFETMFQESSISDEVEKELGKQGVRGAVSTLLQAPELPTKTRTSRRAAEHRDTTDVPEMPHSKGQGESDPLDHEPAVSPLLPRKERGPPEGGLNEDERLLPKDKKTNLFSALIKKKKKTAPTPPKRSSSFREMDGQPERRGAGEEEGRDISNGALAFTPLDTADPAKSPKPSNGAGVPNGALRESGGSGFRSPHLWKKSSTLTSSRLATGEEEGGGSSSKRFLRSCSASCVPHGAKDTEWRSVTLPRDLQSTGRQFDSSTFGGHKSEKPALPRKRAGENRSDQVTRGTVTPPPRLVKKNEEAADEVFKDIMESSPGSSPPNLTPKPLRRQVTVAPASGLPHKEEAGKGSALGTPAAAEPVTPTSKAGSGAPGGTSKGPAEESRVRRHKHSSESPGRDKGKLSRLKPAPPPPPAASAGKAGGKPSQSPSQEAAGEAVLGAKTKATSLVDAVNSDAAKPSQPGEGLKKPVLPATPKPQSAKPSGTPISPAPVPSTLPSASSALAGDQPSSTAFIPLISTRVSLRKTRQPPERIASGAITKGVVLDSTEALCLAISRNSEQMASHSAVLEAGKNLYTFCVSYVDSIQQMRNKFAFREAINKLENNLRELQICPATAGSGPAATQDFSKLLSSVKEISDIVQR

Row | SMILES | ΔTm at 20 µM [1] | ΔTm at 20 µM [2] | ΔTm at 20 µM [3] | ΔTm at 20 µM [4] | ΔTm at 20 µM [5] | ΔTm at 20 µM [6] | ΔTm at 20 µM [7] | ΔTm at 20 µM [8] | ΔTm at 20 µM [9] | Growth rate [GR] ([12]; 3 µM) | Mean ΔTM ABL1 [1] | Mean ΔTM AURKA [2] | Mean ΔTM CDK2 [3] | Mean ΔTM GSK3B [5] | Mean ΔTM BRD4 [6] | Mean ΔTM BRPF1 [7] | Mean ΔTM MAPK1 [8] | Mean ΔTM TRIM24 [9] | Apoptosis induction [AI] ([13]; 3 µM, DMSO 0.1% = 1.00) | other results
1 | CC#C[C@]1(O)CC[C@H]2[C@@H]3CCC4=CC(=O)CCC4=C3[C@@H](c3ccc(N(C)C)cc3)C[C@@]21C [Mifepristone] | 0.11 °C | -1.55 °C | -0.0248 °C | 0.14 °C | -1.3 °C | -2.39 °C | -2.63 °C | -0.7 °C | -0.92 °C | 0.65 and 3.36 and 0.73 and 0.97 and 1.04 and 0.86 and 1.00 and 1.72 and 1.53 and 3.99 |  |  |  |  |  |  |  |  |  | Mean NFκB response ([10]; 3 µM, 1,5 h): 3613.33 GFP+-cells/confluence ∙ 1000; Mean NFκB response ([10]; 3 µM, 4,5 h): 4100.00 GFP+-cells/confluence ∙ 1000; Mean NFκB response ([10]; 3 µM, 7,5 h): 7536.67 GFP+-cells/confluence ∙ 1000; Mean NFκB response ([10]; 3 µM, 10,5 h): 17493.33 GFP+-cells/confluence ∙ 1000; Mean NFκB response ([10]; 3 µM, 13,5 h): 25396.67 GFP+-cells/confluence ∙ 1000; Mean NFκB response ([10]; 3 µM, 16,6 h): 31560.00 GFP+-cells/confluence ∙ 1000; Mean NFκB response ([10]; 3 µM, 19,5 h): 36246.67 GFP+-cells/confluence ∙ 1000; Mean NFκB response ([10]; 3 µM, 22,5 h): 39496.67 GFP+-cells/confluence ∙ 1000; Mean NFκB response ([10]; 3 µM, 3 h): 3656.67 GFP+-cells/confluence ∙ 1000; Mean NFκB response ([10]; 3 µM, 6 h): 4860.00 GFP+-cells/confluence ∙ 1000; Mean NFκB response ([10]; 3 µM, 9 h): 12946.67 GFP+-cells/confluence ∙ 1000; Mean NFκB response ([10]; 3 µM, 12 h): 21246.67 GFP+-cells/confluence ∙ 1000; Mean NFκB response ([10]; 3 µM, 15 h): 28726.67 GFP+-cells/confluence ∙ 1000; Mean NFκB response ([10]; 3 µM, 18 h): 34060.00 GFP+-cells/confluence ∙ 1000; Mean NFκB response ([10]; 3 µM, 21 h): 38440.00 GFP+-cells/confluence ∙ 1000; Mean NFκB response ([10]; 3 µM, 24 h): 40840.00 GFP+-cells/confluence ∙ 1000; activity at 3 µM [11]: 99%; Apoptosis induction [AI] ([13]; 3 µM, HEK293T, 24 h, apoptotic cell count normalized to 0.1% DMSO): 1.09 and 1.02 and 1.10 and 1.15 and 0.56 and 0.53
2 | COc1ccc(-c2coc3cc(O)cc(O)c3c2=O)cc1 [Biochanin A] |  |  |  |  |  |  |  |  |  |  | 1.61 K | 1.95 K | 1.69 K | -0.89 K | 0.32 K | 2.98 K | 0.55 K | 2.59 K |  | Mean ΔTM FGFR3 [4]: 1.13 K; Growth rate [GR] ([12]; 10 µM): 0.50 and 0.90 and 0.87 and 0.72 and 0.82 and 0.61; Apoptosis induction [AI] ([13]; 10 µM, DMSO 0.1% = 1.00): 0.76 and 0.84
3 | CCCC1O[C@@H]2C[C@H]3[C@@H]4CCC5=CC(=O)C=C[C@]5(C)[C@H]4[C@@H](O)C[C@]3(C)[C@]2(C(=O)CO)O1 (some centres unmarked) [Budesonide] | 0.48 °C | -0.16 °C | 0.00668 °C | -0.77 °C | -0.4 °C | -1.67 °C | -1.04 °C | -0.27 °C | -0.81 °C | 0.90 and 1.09 and 1.10 and 0.85 and 0.69 and 0.78 |  |  |  |  |  |  |  |  | 1.77 and 1.74 | Growth rate [GR] ([12]; 0.3 µM): 0.59 and 0.92 (3×) and 1.24 and 0.68; Apoptosis induction [AI] ([13]; 0.3 µM, DMSO 0.1% = 1.00): 1.00 and 1.74; apoptosis induction ([13]; HEK293T, 24 h, budesonide (3 µM), others at tested concentration): slight apoptosis induction
4 | C/C=C1\C(=O)C[C@H]2[C@@H]3CCC4=CC(=O)CC[C@]4(C)[C@H]3CC[C@]12C [Z-Guggulsterone] |  |  |  |  |  |  |  |  |  | 0.73 and 0.88 and 1.06 and 0.96 and 0.82 and 1.15 | 0.07 K | -1.78 K | -0.30 K | -1.05 K | -2.62 K | -1.36 K | 0.47 K | -2.32 K | 0.63 and 1.35 | 
5 | CC/C(=C(/c1ccc(/C=C/C(=O)O)cc1)c1ccc2[nH]ncc2c1)c1ccc(F)cc1Cl [ARN810] | -5.16 °C | 1.69 °C | -3.66 °C | -5.4 °C | 3.37 °C | -0.16 °C | 0 °C | 0 °C | 0 °C |  |  |  |  |  |  |  |  |  |  | Growth rate [GR] ([12]; 1 µM): 0.88 and 0.90 and 1.13 and 0.87 and 1.11 and 0.85; Apoptosis induction [AI] ([13]; 1 µM, DMSO 0.1% = 1.00): 0.78 and 0.92
